In PMC10848157, “Assessing NH300094, a novel dopamine and serotonin receptor modulator with cognitive enhancement property for treating schizophrenia” (Frontiers in Pharmacology, 2024):
Counter-ions that a name gives are not always drawn.

Assays:
[1] = target: 5-HT1B receptor (Homo sapiens, UniProt P28222); assay: 5-HT1B receptor functional assay (cAMP assay, inverse agonist); assay type: cell-based; conditions: inverse agonist activity, CHO-K1/5-HT1B cells, read-out: 5HT1BR, EC50
[2] = target: T1, 5-HT2C receptor (Homo sapiens, UniProt P28335); assay: 5-HT2C receptor functional assay (calcium flow, FLIPR); assay type: cell-based; conditions: HEK293/5-HT2C cells, read-out: 5HT2cR, IC50
T1 sequence (P28335 33-458): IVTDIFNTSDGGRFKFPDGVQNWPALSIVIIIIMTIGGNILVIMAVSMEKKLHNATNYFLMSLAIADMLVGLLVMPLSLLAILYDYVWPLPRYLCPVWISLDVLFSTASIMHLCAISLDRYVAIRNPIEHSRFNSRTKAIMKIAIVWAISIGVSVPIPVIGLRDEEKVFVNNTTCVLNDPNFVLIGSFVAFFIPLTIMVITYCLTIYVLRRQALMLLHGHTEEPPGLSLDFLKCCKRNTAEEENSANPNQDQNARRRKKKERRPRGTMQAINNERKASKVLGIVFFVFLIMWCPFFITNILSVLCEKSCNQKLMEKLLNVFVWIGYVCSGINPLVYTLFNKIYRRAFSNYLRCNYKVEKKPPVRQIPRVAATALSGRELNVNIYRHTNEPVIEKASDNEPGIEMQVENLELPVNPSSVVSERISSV

[3] = tested on: male ICR mice; assay: APO-induced climbing in mice
[4] = tested on: male ICR mice; assay: Forced swimming test in mice; assay type: in vivo; conditions: single oral dose; NH300094 0.03 mg/kg; risperidone 0.01, 0.03 and 0.1 mg/kg
Procedure: Each mouse was required to swim in an open cylindrical container (height of 25 cm, diameter of 10 cm) after intragastric administration of compounds 1 h. The container contained 1.2 L of water with temperature maintained at 24°C ± 1°C. The test used a computerized analysis and tracking system (Clever Sys Inc., Leesburg, VA) to recorded the duration of immobility (last 4 min of a total time of 6 min) about the testing mice.

[5] = tested on: male ICR mice; assay: MK-801-induced hyperactivity in mice; assay type: in vivo; conditions: single oral dose
Procedure: Immediately after injection with either saline or MK-801 (0.3 mg/kg, i.p.), the mice were placed into the test chambers (29 cm × 29 cm × 30 cm) for 60 min of locomotion recording using a tracking and computerized analysis system (TopScan Version 3.00, Clever Sys Inc., Leesburg, VA).

[6] = tested on: male Wistar rats; assay: Conditioned avoidance response test in rats; assay type: in vivo; conditions: Rattus norvegicus, single oral dose, read-out: ED50, inhibition of conditioned avoidance response
From the text: Shuttle-box Avoidance Test Video Analysis System (DigBehv-SBG, Shanghai Jiliang Software Technology Co. Ltd.) were used to assess the rats conditioned avoidance response.
Phase I: The rats responded to the conditioned stimulus (auditory and visual) by training with foot shock reinforcement. Briefly, rats were placed into the CAR shuttle boxes for a 5-min habituation followed by 30 trials presented on a 20-s variable interval (20–30 s) stimulus. Each rats were subjected to a conditioned stimulus which consisted of 10s presentation of light and white noise, and then followed by a scrambled 1.5 mA foot shock for 10 s. […] Rats with avoidance rates greater than 70% for 3 consecutive days were included in this study post-training.
Phase II: The qualified rats were randomly divided into 7 groups. […] The procedure in the testing phase was the same as the Phase I described. The number of avoidances, escapes, and escape failures were recorded.

[7] = tested on: male ICR mice; assay: DOI-induced head twitch in mice
[8] = tested on: male ICR mice; assay: Novel object recognition in scopolamine hydrobromide-treated mice; assay type: in vivo; conditions: NOR; NH300094 0.01–0.16 mg/kg p.o.; risperidone 0.04, 0.08, 0.16 mg/kg p.o.; rivastigmine 0.3 and 1 mg/kg i.p.
Procedure: The procedure was modified according to Bevins and Besheer ([Bevins and Besheer, 2006]). […] The tests were conducted in a 50 cm × 35 cm × 20 cm chamber and the mice behavior was recording using a Hikvision video recording system (H.265, Hikvision Digtial Technology Co., Ltd.). All mice were allowed to freely explore the chamber environment for 10 min, and there were no objects placed in the chamber during acclimatization period. […] Rivastigmine hydrogen tartrate group (0.1, 0.3 and 1 mg/kg, i.p.) were dosed simultaneously with scopolamine hydrobromide (3 mg/kg, i.p.). Training was conducted 30 min post scopolamine hydrobromide administration by placing a single mouse into a chamber for 10 min with two exactly same objects positioned in the center of chamber. (The distance between the two objects was more than 20 cm). […]
The experimental video was analyzed to record the time of mice exploring the new and old objects, respectively, and the differentiation index (DI) was calculated as follows: DI = new object exploration time/(new object exploration time + old object exploration time), which was used as the main evaluation index of discrimination ability. […] If the total exploration time of the new and old objects was less than 20 s, the total 10 min of video would be analyzed. […] The movement of circling without sniffing or sitting on the object was not recorded as exploration behavior.

[9] = single oral dose, male ICR mice

Chain of 5-HT1B receptor (P28222 whole entry): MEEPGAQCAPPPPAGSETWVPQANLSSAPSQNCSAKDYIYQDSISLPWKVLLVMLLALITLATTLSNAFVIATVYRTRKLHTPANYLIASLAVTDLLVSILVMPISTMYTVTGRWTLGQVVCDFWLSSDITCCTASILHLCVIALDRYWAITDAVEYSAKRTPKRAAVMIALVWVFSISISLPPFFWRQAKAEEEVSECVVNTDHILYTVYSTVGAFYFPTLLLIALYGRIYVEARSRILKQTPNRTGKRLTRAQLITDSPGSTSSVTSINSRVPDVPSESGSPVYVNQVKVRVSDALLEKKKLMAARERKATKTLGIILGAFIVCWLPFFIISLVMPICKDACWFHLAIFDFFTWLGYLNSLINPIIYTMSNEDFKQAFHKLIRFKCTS

CSc1ccc2c(c1)C(N1CCN(C)CC1)Cc1ccccc1S2 (centres unmarked) [Methiothepin, reference compound]
EC50 [1]: 22.3 ± 9.69 nM
IC50 [2]: 39.7 nM

Cc1nc2n(c(=O)c1CCN1CCC(c3noc4cc(F)ccc34)CC1)CCCC2 [Risperidone, risperidone, reference compound]
ED50 ([3]; Mus musculus, read-out: ED50, inhibition of APO-induced climbing): ~0.1 mg/kg
MED, APO-induced climbing [3, 9]: 0.1 mg/kg
effect on immobility time in the FST [4]: did not affect the immobility time
ED50 ([5]; Mus musculus, MK-801 0.3 mg/kg i.p., read-out: ED50, inhibition of MK-801-induced hyperactivity): ~0.08 mg/kg
Minimum effective dose (MED), MK-801-induced hyperactivity [5]: 0.1 mg/kg
ED50 [6]: ~0.7 mg/kg
ED50 ([7]; Mus musculus, po, read-out: ED50, inhibition of DOI-induced head twitch, single oral dose, male ICR mice, DOI 1 mg/kg): ~0.002 mg/kg
MED, DOI-induced head twitch [7, 9]: 0.001 mg/kg

CCN(C)C(=O)Oc1cccc([C@H](C)N(C)C)c1 [rivastigmine bitartrate, rivastigmine hydrogen tartrate, reference compound]
effect on differentiation index (DI) of scopolamine hydrobromide-treated mice [8]: significantly enhanced learning and memory ability
